Legend:
Rattus norvegicus [1] = species on record: Rattus norvegicus; assay: Evaluated for the percentage efficacy in rat hippocampal slice preparations; assay type: functional, Hippocampus
Cavia porcellus [2] = species on record: Cavia porcellus; assay: Evaluated for the muscarinic potency in guinea pig ileum contraction model; assay type: functional
Cavia porcellus [3] = species on record: Cavia porcellus; assay: Evaluated for the percent efficacy in guinea pig ileum contraction model; assay type: functional
Rattus norvegicus [4] = species on record: Rattus norvegicus; assay: Evaluated for the muscarinic potency in rat hippocampal slice preparations; assay type: functional, Hippocampus
Rattus norvegicus [5] = species on record: Rattus norvegicus; assay: Evaluated for the muscarinic potency in depolarizations of rat superior cervical ganglion; assay type: functional
Rattus norvegicus [6] = species on record: Rattus norvegicus; assay: Evaluated for the percentage efficacy in depolarizations of rat superior cervical ganglion; assay type: functional
Rattus norvegicus [7] = species on record: Rattus norvegicus; assay: Evaluated for the percentage efficacy in rat superior cervical ganglion; assay type: functional
Rattus norvegicus [8] = species on record: Rattus norvegicus; assay: Evaluated for the muscarinic potency in rat superior cervical ganglion; assay type: functional
[9] = biological target: T1, Muscarinic acetylcholine receptor M1 (Rattus norvegicus, UniProt P08482); assay: Evaluated for inhibition of binding of [3H]pirenzepine to homogenized rat cerebral cortex membranes; assay type: cell membranes, Membrane
T1 sequence (P08482 whole entry): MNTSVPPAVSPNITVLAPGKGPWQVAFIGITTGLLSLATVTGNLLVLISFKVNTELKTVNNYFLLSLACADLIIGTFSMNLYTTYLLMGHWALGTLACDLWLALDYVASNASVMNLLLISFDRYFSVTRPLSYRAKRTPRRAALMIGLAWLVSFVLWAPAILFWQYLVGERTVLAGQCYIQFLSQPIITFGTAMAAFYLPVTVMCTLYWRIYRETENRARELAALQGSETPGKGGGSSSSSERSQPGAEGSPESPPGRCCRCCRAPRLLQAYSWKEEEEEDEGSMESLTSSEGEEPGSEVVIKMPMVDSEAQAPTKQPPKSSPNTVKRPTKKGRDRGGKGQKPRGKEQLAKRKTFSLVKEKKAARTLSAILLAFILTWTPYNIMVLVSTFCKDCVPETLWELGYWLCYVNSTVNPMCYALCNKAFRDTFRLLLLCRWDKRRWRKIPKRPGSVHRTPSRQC

SMILES | Efficacy (Rattus norvegicus [1]) | pD2 (Cavia porcellus [2]) | Efficacy (Cavia porcellus [3]) | pD2 (Rattus norvegicus [4]) | pD2 (Rattus norvegicus [5]) | Efficacy (Rattus norvegicus [6]) | Efficacy (Rattus norvegicus [7]) | pD2 (Rattus norvegicus [8]) | IC50 [9] | Efficacy (Rattus norvegicus [5])
COC(=O)C1=CCCN(C)C1 [ARECOLINE] | 100% | 6.5 | 100% | 6.1 | 6.6 | 80% |  |  |  | 
COC(=O)[C@H]1C[C@H]2C[C@@H]1N(C)C2 |  | 4.9 | 68% | <4 |  |  | 71% | 5.9 | 1910 nM | 
COC(=O)[C@@H]1C[C@@H]2C[C@H]1N(C)C2 | 33% | <4 |  | 5.9 | 4.4 |  |  |  | 3890 nM | 70%
COC(=O)[C@H]1C[C@@H]2CN[C@H]1C2 |  | 5.2 | 94% | <4 | 5.2 |  |  |  | 2570 nM | 47%
COC(=O)C1CC2CNC1C2 (racemic) | 103% | 6.2 | 91% | 5.5 | 6.3 |  |  |  | 1950 nM | 57%
COC(=O)[C@@H]1C[C@H]2CN[C@@H]1C2 | 120% | 6 | 120% | 6 | 6.7 |  |  |  | 1410 nM | 90%
COC(=O)C1CC2CC1N(C)C2 (racemic) | 39% | 4.2 | 58% | 5.4 | 5 |  |  |  | 2820 nM | 82%

From ChEMBL document CHEMBL1152096 (Bioorg Med Chem Lett, 1992)
